# Like-named read-outs stand apart in the source and are kept apart here.
# Assay: Ames test (ISO/FDIS 7405), mutagenicity test
# Format: cell-based
# Text: The improved toxicity is manifested, for example, in a lower mutagenicity.
SMILES,Ames test (ISO/FDIS 7405),Ames test (ISO/FDIS 7405) (mutagenicity)
C[Si](C)(CC1CCC2OC2C1)CC1CCC2OC2C1 (stereo not drawn) [dimethylbis[2-(7-oxabicyclo[4.1.0]hept-3-yl)methyl]-silane],negative,
"O=C(OCC1CCC2OC2C1)C1CCC2OC2C1 (stereo not drawn) [3,4-epoxycyclohexylmethyl 3,4-epoxycyclohexanecarboxylate, reference compound]",,positive
C[Si](CCC1CCC2OC2C1)(CCC1CCC2OC2C1)c1ccccc1 (stereo not drawn) [methylbis[2-(7-oxabicyclo[4.1.0]hept-3-yl)ethyl]phenyl-silane],negative,
